Measured values reported in ChEMBL document CHEMBL3351545, “Development of photo-controllable hydrogen sulfide donor applicable in live cells” (Bioorg Med Chem Lett, 2015).
Activity calls are given as the source filed them. The rule behind the calls is not given here.

Legend:
HEK293 [1] = assay: Induction of H2S release in HEK293 cells at 100 uM incubated for 30 mins followed by UV photo-irradiation for 5 mins by fluorescence microscopic analysis; assay type: functional, cell-based; conditions: Homo sapiens
[2] = Induction of H2S release in phosphate buffer at 100 uM at pH 7.4 UV-irrdiated for 400 secs by methylene-blue assay; assay type: physicochemical; conditions: pH 7.4, 0.111111 h
HEK293 [3] = assay: Cytotoxicity against HEK293 cells at 1 to 30 uM using acetoxymethylated compound after 2 days by MTT assay; assay type: cell-based; conditions: human, hek293, 48 h
HEK293 [4] = assay: Induction of H2S release in HEK293 cells at 100 uM using acetoxymethylated compound incubated for 30 mins followed by UV photoirradiation for 5 mins by fluorescence microscopic analysis; assay type: functional, cell-based; conditions: Homo sapiens
[5] = Induction of H2S release in phosphate buffer at 100 uM at pH 7.4 followed by UV-irrdiation by methylene-blue assay; assay type: physicochemical; conditions: pH 7.4, 100 µM, TDE = time-dependent effect
[6] = Induction of H2S release in phosphate buffer at 100 uM at pH 7.4 UV-irrdiated for 300 secs by fluorescence assay relative to control; assay type: physicochemical; conditions: pH 7.4, 5 min
[7] = Stability of the compound in phosphate buffer at 100 uM at pH 7.4 under dark condition after 1 month by HPLC analysis; assay type: physicochemical; conditions: pH 7.4, 730.5 h

Activity [2] | Activity [5] | Activity [6] | Stability [7] | SMILES | Activity (HEK293 [1]) | Activity (HEK293 [3]) | Activity (HEK293 [4])
15 µM | – | – | – | CC(CSCC(C)(C(=O)O)c1cccc(C(=O)c2ccccc2)c1)(C(=O)O)c1cccc(C(=O)c2ccccc2)c1 (configuration not stated) | inactive | – | –
– | tde | Active | Stable | CC(CSCC(C)(C(=O)O)c1ccc2oc3ccccc3c(=O)c2c1)(C(=O)O)c1ccc2oc3ccccc3c(=O)c2c1 (configuration not stated) | – | Non-toxic | Active
